Tests used:
[1] = biological target: T1, HLA-A*0301 (Homo sapiens, UniProt P04439); test: HLA class I-peptide stability assay in TAP-deficient HLA-A*0301 mono-allelic cells; assay type: cell-based
T1 construct: expressed in transfected cells; host or cells: TAP-deficient (CRISPR/Cas9) HLA-A*0301 mono-allelic 721.221 human B cells

[2] = tested on: HLA class I alleles; assay type: cell-based, human

Sequence | HLA-A*0301 stabilization [1] | 50% Experimental Binder [2] | other results
RVIHFGAGSDK [A3 COVID 3] | HLA stabilizing |  | 
YQDVNCTEV [B39 COVID 11] |  | YES | 
MIAQYTSAL [B7 COVID 16] |  |  | stabilization of HLA class I alleles [2]: stabilized a number of HLA class I alleles
NPLLYDANYFL [B81 COVID 14] |  | YES | 
KGIYQTSNFR [A3 COVID 15] | HLA stabilizing |  | 
